A melting point compilation (Tetko et al.; mined from patent text by program, amines drawn as free bases though some values may be those of a salt)

melting point | SMILES
127 to 128 °C | CCOC(=O)Cc1c(-c2ccccc2)c2cc(C)c(C)cc2oc1=O
118 to 120 °C | O=C1c2ccccc2CCc2cccnc21
202 to 204 °C | CC(=O)NC[C@H]1CN(c2ccc(N3CCC(n4nnc(N5CCN(Cc6ccccc6)CC5)n4)CC3)c(F)c2)C(=O)O1
182 to 188 °C | CC(=O)c1ccc2c(c1)Cc1cc(C#N)ccc1-2
249 to 251 °C | CSc1nc(-c2cc(C(C)(C)C)c(O)c(C(C)(C)C)c2)c[nH]1
323 to 326 °C | CC(C)c1ccc(-n2nc(O)c3[nH]c4cc(Cl)ccc4c(=O)c3c2=O)cc1
136 °C | CCOc1cc2ncc(NCc3ccccc3)nc2cc1OCC
167 to 170 °C | Cc1nccn1-c1ccc(COc2cc(F)cc(C3(C(N)=S)CCOCC3)c2)cc1
86 to 89 °C | O=c1n(CCCF)nnn1-c1ccc([N+](=O)[O-])cc1F
190 to 195 °C | COc1ccc2c(Cc3c(Cl)cncc3Cl)nnc(CO)c2c1
182 to 184 °C | CCOc1cc2nc(S(C)(=O)=O)[nH]c2cc1OCC
82 to 84 °C | CCC(CC)Nc1cc(C)nc(Cl)c1C(=O)OC
159 to 160 °C | CC(C)(C)OC(=O)NC1CCCCc2cc(OCC3CCCCC3)c(C(=O)O)cc21 (stereo not given)
106 to 109 °C | CCC(CC)(CC(=O)c1ccc(OC)c(OC)c1)C(=O)O
131 to 132 °C | COC(=O)C(O)=Cc1ccc(OCc2ccc(F)cc2)cn1
227 to 228 °C | Cc1ccc(-n2c(=O)cc(C(F)(F)F)[nH]c2=S)cc1OC(C)C
132 to 133 °C | C[Si](C)(CCCc1nnc(N)nc1N)c1ccccc1
83 °C | COC(=O)c1c(F)cc(OCCNC(=O)C2Cc3ccccc3N2S(=O)(=O)c2ccc(-c3ccc(F)cc3)cc2)cc1F (stereo not given)
88 to 92 °C | CC1CCC(=Nc2ccccc2)N1Cc1c[nH]c2ccccc12 (stereo not given)
157 to 158 °C | OCc1cccc2c1nc(-c1c(F)cccc1F)n2Cc1c(F)cccc1F
128 to 132 °C | CC1(C)C(C=C(Cl)Cl)C1(C#N)C(=O)O (stereo not given)
226 °C | CCOC(=N)c1sc2cc(Cl)ccc2c1O
252 °C | CC(C)(C)NS(=O)(=O)c1cnc(-c2cn(-c3cc(-c4ccc(C(F)(F)F)cc4)cc(C(F)(F)F)n3)cn2)s1
149 to 150 °C | OCC1=C(c2ccc3sccc3c2)N2CCN=C2S1
60 °C | c1ccc(OCCSCc2nnc(-c3ccc(OCCN4CCSCC4)cc3)o2)cc1

melting point | SMILES
260 °C | COC(=O)c1ccc2c(c1)C(=O)c1ccc(C(=O)OC)cc1C2=O
143 to 145 °C | O=C(O)C(Cc1occ2ccccc12)NC(=O)C(CS)C(F)(F)F (stereo not given)
167 to 168 °C | CSc1cc2c(N3CCc4ccc(Cl)cc43)ncnc2cc1Cl
60 to 61 °C | CCNc1c(C(=O)OCC)c(C)nc2c1nnn2CC
198 to 201 °C | CCCN(CCc1ccccc1)CCc1cccc2[nH]c(=S)[nH]c12
181 to 182 °C | Nc1nc(OC2CCCC2)c2ncn([C@@H]3C[C@H](CO)[C@@H](O)C3)c2n1
> 290 °C | Cc1c(-c2ccc3sc(=O)[nH]c3c2)nc2ncccn12
241 to 244 °C | O=C(N[C@H]1CC[C@H](N2CCN(c3ccccn3)CC2)CC1)c1ccccc1
127 to 128 °C | CCOC(=O)C(O)=Cc1ccc(Oc2ccccc2)nn1
160 °C | CC(C)C(O)c1ccc2oc3ncccc3c(=O)c2c1 (stereo not given)
205 to 207 °C | O=C(Nc1ccc2[nH]ccc2c1)c1ccc(F)cc1
120 °C | CCN1CCCc2cc(C(=O)c3ccc4c(c3)CCCN4CC)ccc21
141 to 143 °C | O=C(Nc1ccc(Cl)c(Cl)c1)OCCCC(=O)c1ccccc1
192 to 194 °C | CCC1c2cccn2-c2cc(Cl)ccc2N1S(=O)(=O)c1ccc(O)cc1 (stereo not given)
107 to 108 °C | CCOC(=O)c1cc(=O)c2ccc(OCCCCl)cc2o1
151 to 153 °C | CCc1nc(C(=O)O)c(CC)c(C)c1C(c1cc(F)ccc1F)S(=O)(=O)c1ccc(F)cc1 (stereo not given)
186 to 187 °C | COC(=O)N(CC(=O)O)C(=O)c1c(OCC(F)(F)F)ccc2c(C(F)(F)F)c(OC)ccc12
144 to 146 °C | COC(=O)Cn1c(C(=O)N(CCC2CCCCC2)c2nc(-c3cc(OC)c(C)cc3OC)cs2)cc2ccccc21
291 to 292 °C | CCCN1c2nc(-c3cn[nH]c3)ccc2NC(=O)c2cccnc21
113 to 115 °C | O=C(NCCO)/C(=C/c1ccc(C2CC2)cc1)NC(=O)c1ccc(OCCc2ccc3c(c2)OCO3)cc1
166 to 167 °C | CCn1c2ccc(C=O)cc2c2cc(C=C(c3ccccc3)c3ccccc3)ccc21
197 to 200 °C | O=C1CCNC(=O)C1C(=O)c1ccc(C(F)(F)F)cc1 (stereo not given)
185 to 187 °C | CCC(=O)Nc1ncc(Sc2ccc(N)cc2)s1
178 to 180 °C | C[C@]1(N2C(=O)c3cccc(OCc4ccc(CN5CCOCC5)cc4)c3C2=O)CCC(=O)NC1=O
105 to 107 °C | O=S(=O)(c1ccc(Cl)cc1)C(c1cc(F)ccc1F)C(O)CCCCO (stereo not given)

melting point | SMILES
154 to 155 °C | COc1c(C(=O)O)oc2c3ccccc3n(-c3ccccc3)c12
223 to 226 °C | CON(C)Cc1nc2c(N)nc3ccccc3c2n1CC1CCOCC1
246 to 248 °C | CC(C)(C)C(NC(=O)c1ccc(Cl)cc1)Nc1c(Nc2ccccn2)c(=O)c1=O (stereo not given)
124 to 132 °C | Cc1c(C)c(O)c(CC[C@](C)(O)CO)c(C)c1O
110 °C | Cc1ccc2c(c1)[C@H]1Cc3ccccc3[C@H]1N2 (relative stereo)
64 to 65 °C | O=C(O)CSc1sccc1Br
205 to 206 °C | O=C1N(C/C=C/c2ccccc2[N+](=O)[O-])CCN1c1ccncc1
79.5 to 82 °C | CC(=O)Oc1ccc(O[C@@H]2CCN(C)C[C@H]2c2ccccc2)cc1 (relative stereo)
65 to 68 °C | COc1cc2cc(CO)c(CO)c(-c3ccnc(-n4c(=O)cc(C(=O)N(CCO)CCO)c5ccccc54)c3)c2cc1OC
65 to 67 °C | CCOC(=O)C1=C(C)NC(SCc2ccc(OC)cc2)=NC1c1cccc(C)c1 (stereo not given)
88 °C | CCCCCCCCCCOc1ccc(C(=O)NNC(=O)C(F)(F)C(F)(F)C(F)(F)F)cc1
66 to 68 °C | Cc1cc(C)c2cccc(Cl)c2n1
253 to 255 °C | N#Cc1cnc(-c2ccncc2)nc1N
102 °C | CCCc1ccc(S(=O)(=O)Nc2ccc3nc(C)oc3c2)cc1
193 to 196 °C | COc1nc(C)nc(NC(=O)NS(=O)(=O)c2ccccc2C(=O)OC(C)C)n1
114 to 116 °C | CC(C)(Oc1ccccc1S(C)(=O)=O)C(=O)O
202 to 203 °C | COc1c(NC(=O)c2ccc(C)c(-n3cc(C(=O)NCC4CCN(C)CC4)nn3)c2)cc(C(C)(C)C)cc1NS(C)(=O)=O
50 to 51.5 °C | COC(=O)CCC(=O)c1cc(OC)ccc1OCC1CO1 (stereo not given)
223 to 227 °C | Cc1ccc2cccc(OCc3cccc(N)c3C)c2n1
165 to 167 °C | O=C(c1cc(Cl)ccc1NC(c1ccccc1)(c1ccccc1)c1ccccc1)C(F)(F)F
186 to 188 °C | Oc1cn(-c2c(Cl)cc(C(F)(F)F)cc2Cl)nc1C(F)(F)F
65 to 66 °C | CC1(COCc2ccccc2)COC(c2ccc([N+](=O)[O-])cc2)=N1 (stereo not given)
177 to 179 °C | C=Cc1cc(C)cc(C)c1CC(=O)N(O)C1(C(=O)OC)CCN(OC)CC1
120 to 122 °C | CNC(=O)c1ccccc1-c1cc(C)no1
134 to 135 °C | COc1ccnc(CSc2nc3cc(OC(F)(F)F)ccc3[nH]2)c1

melting point | SMILES
255 °C | O=C(NCC(=O)N1[C@@H](c2ccccc2)CC[C@H]1c1ccccc1)Nc1cccc(C(=O)O)c1
186 to 187 °C | N/C(=C1/Sc2ccccc2C1=O)c1ccccc1N
136 to 140 °C | Cc1cccc(NC(=O)NC2CN(C(=O)C(C)(C)C)c3ccccc3N(CC(=O)OCc3ccccc3)C2=O)c1 (stereo not given)
207 °C | Cc1ccc(C2Sc3ccccc3NC(=O)C2COS(C)(=O)=O)cc1 (stereo not given)
166 to 167 °C | COc1cccc2c1OC1C=CC=C3C(=O)N(CC4CC4)C(=O)CC321 (stereo not given)
166 °C | CCCCOc1cc(C=C(C)C(=O)O)ccc1-c1cccc(CNCC(=O)c2ccccc2)c1
183 to 184 °C | COC(=O)c1ccc(-c2nc(-c3ccc(Cl)cc3)co2)cc1
194 to 196 °C | Cc1nc2c([N+](=O)[O-])cc(S(=O)(=O)N(C)C)cc2n1C
> 250 °C | CNC1Oc2cc(Cl)cc(-c3ccccc3Cl)c2O1 (stereo not given)
134 to 135 °C | O=C1CC2CSc3sccc3C2=NN1c1ccc(Cl)cc1 (stereo not given)
131 to 132 °C | CCOC(=O)C=Cc1ccc(CCNS(=O)(=O)C=Cc2ccc(Cl)cc2)cc1
78 to 82 °C | OCC1OC(n2cnc3c(NCCCCC(c4ccccc4)c4ccccc4)ncnc32)C(O)C1O (stereo not given)
87 to 88 °C | CC1(C)CCCC2(C)C3CC=C(C=O)CC(=O)C3CCC12 (stereo not given)
234 to 236 °C | NS(=O)(=O)c1ccc([C@H]2[C@H](C(=O)Nc3ccc(C(F)(F)F)cc3)C23CCCC3)cc1 (relative stereo)
107 to 109 °C | CC(C)(C)c1ccc(OCC(O)CN2CCC3(CC2)CSC2=C(O3)c3cc(N4CCOCC4)ccc3C(=O)C2=O)cc1 (stereo not given)
125 to 129 °C | C[C@@H]1c2cccn2-c2ccc(F)cc2N1C(=O)c1ccc(O)cc1
281 to 282 °C | O=C(c1ccc(-c2nc(C(=O)O)co2)cc1)c1cccnc1
159 °C | CC(O)c1nc(N)nc(N)c1-c1ccc(Cl)cc1 (stereo not given)
191 to 192 °C | O=c1c2ccccc2oc2c(CBr)cccc12
187 °C | O=C(O)C12C3C4C5C(C1C53[N+](=O)[O-])C42[N+](=O)[O-] (stereo not given)
207 to 210 °C | CCC1CC2=C3C(=CN(OC)C2OC)OCCC3C1 (stereo not given)
267 to 269 °C | CCOC(=O)c1cnc(Nc2ccccc2)[nH]c1=O
56 to 57 °C | C[Si](C)(Oc1ccc(N)cc1)O[Si](C)(C)Oc1ccc(N)cc1
107 to 110 °C | CC(Oc1ccccc1-c1ccc(Cl)c(C(=O)NCC23CC4CC(CC(C4)C2)C3)c1)C(=O)O (stereo not given)

SMILES | melting point
Cc1[nH]c(Cl)c(C#N)c1SC(F)(Cl)Cl | 187 °C
